Test results: ChEMBL document CHEMBL3507680, “University of Dundee, Gates Library screen for HepG2 cell viability”

Experiment: Human HepG2 cell viability assay in 384 well format
Type: toxicity, cell-based
Parameters: dose 125 nL, time 70.5 hour; concentration not given beside the values
Conditions: HepG2 cells, read-out: Inhibition

SMILES	cytotoxicity at 70.5 h [%]
Fc1ccc(Sc2ccccc2CNC2=NCCN2)cc1	-5.29
O=c1ncn(-c2ccccc2F)c2ncccc12	-5.32
Fc1ccccc1Sc1ccccc1CNC1=NCCN1	-0.773
CCOC(=O)c1cnn(-c2cc(Oc3cccc(C)c3)ncn2)c1N	-0.773
NC(=O)Cn1cnc2nc3n(c2c1=O)CCC3	16.5
CCC1CCc2c(c3ccccc3[nH]c2=O)O1 (configuration not stated)	24.6
CN(C(=O)c1cccc(C#N)c1)c1nnc(C2CCOC2)s1 (configuration not stated)	-7.42
CC1CCc2c(c3ccccc3[nH]c2=O)O1 (configuration not stated)	-6.86
CCn1cc(C(=O)Nc2ccccc2C(=O)OC)cn1	13.1
Cn1c(=O)c2c(c3ccccc31)OC(C)(C)CC2	-9.34
Cn1c2c(c(=O)c3ccccc31)CCC(C)(C)O2	-9.34
NC(=O)c1ccc(NC(=O)Cn2cc(-c3ccccc3)ncc2=O)cc1	-17.2
Cn1cc(NC(=O)Cn2cc(-c3ccccc3)ncc2=O)cn1	19.6
Cc1c(C2CC(=O)Nc3c2cnn3C(C)(C)C)cnn1C (configuration not stated)	-11.8
Cc1cnc(NC(=O)CSC2CCc3ccccc3NC2=O)s1 (configuration not stated)	1.54
Cc1nc(-c2ccccc2F)sc1C(=O)N1CCC(=O)CC1	-8.75
O=C1CC(c2ccc(O)cc2)c2sc(C(=O)O)c(-c3ccccc3)c2N1 (configuration not stated)	-16.3
CC(=O)c1cccc(NC(=O)Cn2cc(-c3ccccc3)ncc2=O)c1	-6.47
O=C(Cn1cc(-c2ccccc2)ncc1=O)NC1CCCCC1	5.64
Cn1c(=O)[nH]c(=O)c2c1nc1n2CC(c2ccc(Cl)cc2)O1 (configuration not stated)	43
Cc1cc(O)n(-c2ccccc2Cl)c(=O)c1C#N	-0.226

SMILES	cytotoxicity at 70.5 h [%]
O=C(Nc1ccc(I)cc1C(=O)NCCN1CCOCC1)c1cccs1	11.1
CC(=O)c1c(C)nn(S(=O)(=O)c2ccc(C)c(C)c2)c1C	-0.468
CC(=O)c1c(C)nn(S(=O)(=O)c2ccc(Cl)cc2)c1C	3.92
CCOC1Sc2nnc(C)n2N=C1c1ccc(Br)cc1 (configuration not stated)	-8.58
CC(=O)c1c(O)n(C)c2ccc(C)cc12	1.11
O=C(CCn1ccnc1)N1CC[C@H](Oc2cccc(F)c2)[C@@H](O)CC1	28.5
COc1cccc(O[C@H]2CCN(c3nc(C)cc(C)n3)CC[C@@H]2O)c1	20.4
O=C1CN([C@@H]2CC[C@@H](NS(=O)(=O)c3ccccc3F)[C@H]2O)CCN1	25.1
Cn1ccc(C(=O)N2CCCC2c2cc[nH]n2)n1 (configuration not stated)	25.1
Fc1ccccc1CN1CCC[C@H](Cn2nnc(-c3cccs3)n2)C1	-0.999
COc1ccccc1NC(=O)c1cnc(C2CCN(C(C)=O)C2)nc1C (configuration not stated)	-1.01
O=C1CN([C@@H]2CC[C@@H](NS(=O)(=O)c3ccc(F)cc3)[C@H]2O)CCN1	4.31
CC(C)n1nccc1CN1Cc2nccn2CC1c1ccccc1 (configuration not stated)	-7.71
CC(=O)N1CCC(Cc2ccc(-c3ccnn3C)nc2)CC1	-7.13
CC(=O)N[C@@H]1CN(C(=O)c2cccc(C(F)(F)F)c2)C[C@H]1O	-4.74
CC1(c2ncc(CN3CCOCC3)cn2)CCCCO1 (configuration not stated)	-1.05
CC(C)c1cc(C(=O)N[C@@H]2CC[C@@H](Oc3ccccc3)[C@@H]2O)on1	-3.21
Cc1ccccc1S(=O)(=O)N[C@@H]1CC[C@@H](N2CCNC(=O)C2)[C@@H]1O	-4.42
O=C(c1cnccn1)N1CCCC(C2=Nc3ccccc3S(=O)(=O)N2)C1 (configuration not stated)	-6.36
Cc1ccc(-c2noc(C3CCN3C(=O)c3ccn(C)n3)n2)s1 (configuration not stated)	1.02
Cc1cccc(-c2nccnc2C2CCCN(C)C2)c1 (configuration not stated)	-2.49

SMILES	cytotoxicity at 70.5 h [%]
COCC(=O)N1CCCC1(C(=O)N(C)C)c1cnccn1 (configuration not stated)	-4.12
C=C(C)Cn1nc(C)c(CN2CCN(C3CCCCC3)C(=O)C2)c1C	1.66
Cc1nc(-c2ccnn2C)cc(C2CCCN(S(C)(=O)=O)C2)n1 (configuration not stated)	-6.24
CNc1ccc(C2CN(c3nc(C)cc(C)n3)CCO2)nc1 (configuration not stated)	-2.83
CC(=O)N1CCCC1CCc1ccnc(-c2cncnc2)c1 (configuration not stated)	-2.53
CCOc1ccc(CN2CCOCC2c2[nH]ncc2C)cc1CO (configuration not stated)	-2.3
CNC(=O)C1(C)CN(S(=O)(=O)c2cccc(OC)c2)CCO1 (configuration not stated)	22.5
O=C(Cn1cccn1)N1CCC(c2nnc(-c3ccsc3)o2)CC1	-4.75
CNc1ccc(C2CN(c3cc(C)nc(N)n3)CCO2)nc1 (configuration not stated)	-2.26
CC1CCN(c2ncc(-c3ccccc3F)c(-c3nccn3C)n2)CC1	-2.25
CC(C)NC(=O)C1(Cc2ccccc2-c2cncnc2)CCCNC1 (configuration not stated)	-4.61
COc1cccc(S(=O)(=O)N2CCOC(C)(C(N)=O)C2)c1 (configuration not stated)	-3.76
Cc1nc2cc(C3CCOCC3)nn2c(NCC2COCCO2)c1C (configuration not stated)	20.9
O=C(c1cnco1)N1CCC(Cc2ccc3ncccc3c2)CC1	5.02
CN1CCc2nc(C3CCCN(S(=O)(=O)N4CCCC4)C3)ncc2C1 (configuration not stated)	0.156
CN(C)C(=O)c1cncnc1-c1ccc(CNC(=O)C2CC2)cc1	-11.4
CC(NC(=O)C1CC1)c1cc(O)nc(-c2cccnc2)n1 (configuration not stated)	26.9
CS(=O)(=O)N1CCCCCC1c1cc(-c2ccc(F)cc2)no1 (configuration not stated)	5.67
CN1C[C@]2(CC[C@@H](C(=O)O)CC2)Oc2ccccc2C1=O	-6.54
CCCC(=O)NCCc1nc2cc(-c3ccc(OC)cc3)ncn2n1	-8.47
Cc1ccc(CN2CCOCC2c2[nH]ncc2C)cn1 (configuration not stated)	-7.81

SMILES	cytotoxicity at 70.5 h [%]
Cc1cn[nH]c1C1COCCN1Cc1cscn1 (configuration not stated)	-13.2
CC1(c2ncc(CN3CCN(c4ncccn4)CC3)cn2)CCCCO1 (configuration not stated)	-9.22
COc1ccc(CCc2nnc(NC(=O)C3CC34CCC4)s2)cc1OC (configuration not stated)	-8.17
CCc1nnc(Nc2cc(C)nc(C3CN(C(C)=O)CCO3)c2)s1 (configuration not stated)	0.483
CS(=O)(=O)N1CCCC1c1ccnc2nccn12 (configuration not stated)	-12.2
Cc1noc(C)c1-c1cccc(C2CCN(S(=O)(=O)N(C)C)CC2)n1	2.89
Cc1ncc(C(=O)N2CCOC(C(=O)N3CCCCC3)C2)c(C)n1 (configuration not stated)	-3.05
Cc1cccc(C2(CNC(=O)c3ccnc(N(C)C)c3)CCOCC2)c1	15.5
Cc1onc(-c2ccncc2)c1C(=O)NC1CCCOC1 (configuration not stated)	-9.07
CC(C)(C)C(=O)NCCc1cc(N2CCOCC2)nc(NC2CC2)n1	-9.36
Cc1nonc1CNC(=O)C(C)Oc1cccc(F)c1 (configuration not stated)	-8.47
CCC(CO)NCc1ccc(-c2ccc(Cl)cc2)o1 (configuration not stated)	7.49
c1nc(N2CCOCC2)sc1-c1cncn1CCCN1CCCCC1	-4.2
Cc1nc(N)c2ccc(C3CCCCN3)nc2n1 (configuration not stated)	-1.97
c1nc(N2CCOCC2)ncc1-c1cncn1CCCN1CCCCC1	-13.7
NC1CCc2nc(-c3cccnc3)nc(Nc3ccc(F)cc3)c2C1 (configuration not stated)	3.41
CC(=O)Nc1ccc(Oc2cc(C)nc(C3CCCNC3)c2)cc1 (configuration not stated)	-3.03
Cc1cc(Oc2ccc(NC(=O)C3CC3)cc2)cc(C2CCNCC2)n1	-4.04
NCCc1cc(N2CCOCC2)nc(NC2CC2)n1	-8.21
